# Experimental data taken from US8283009B2, “Use of a material based on a thermoplastic polymer having a high content of antioxidants for packaging dianhydrohexitols” (Roquette Freres, priority 2007, dated 2012).
# Key:
# [1] = Storage stability of isosorbide in sealed packaging sachets at 50° C., pH-metry; type: physicochemical
# Description: 50 g of isosorbide in solid form (flakes) are introduced into a sachet (25 cm×25 cm) constituted of the packaging material to be tested. The sachet is immediately sealed by welding using an impulse heat sealer (model SZ 380 sold by Joisten & Kettenbaum GmbH & Co, Bergisch Gladbach, Germany). The thus sealed sachet is in turn introduced into a second sachet made of aluminum comprising a polyethylene coating, sealed by welding using the same heat sealer in order to ensure leaktightness with respect to the external atmosphere. The samples thus packaged are placed in a ventilated oven, thermostatted at a temperature of 50° C. A control sample is enclosed in a glass flask and stored under the same conditions.
# After a given period, the whole of the sample of isosorbide is extracted from the packagings and dissolved to 40% by weight of solids in osmosed water. […]
# [2] = Analysis for peroxides on the packaged product after storage; type: physicochemical; details: packaged in accordance with the invention (PE + carbon black); 50° C.; after 4 months of storage
structure (smiles),measurement,setting,value
"O[C@@H]1CO[C@H]2[C@@H]1OC[C@@H]2O [isosorbide, 1,4:3,6-dianhydrosorbitol]",drop in pH after storage,"[1]; packaged in accordance with the invention (PE + carbon black), after 4 months of storage",no drop in pH
same,pH of the solution,"[1]; packaging PE + carbon black (according to the invention), storage 0 day, 40% by weight of solids in osmosed water",pH 7.6
same,pH of the solution,"[1]; packaging PE + carbon black (according to the invention), storage 1 month, 40% by weight in osmosed water",pH 7.3
same,pH of the solution,"[1]; packaging PE + carbon black (according to the invention), storage 1.5 month, 40% by weight in osmosed water",pH 7.4
same,pH of the solution,"[1]; packaging PE + carbon black (according to the invention), storage 2 months, 40% by weight in osmosed water",pH 7.5
same,pH of the solution,"[1]; packaging PE + carbon black (according to the invention), storage 2 weeks, 40% by weight in osmosed water",pH 7.2
same,pH of the solution,"[1]; packaging PE + carbon black (according to the invention), storage 2.5 months, 40% by weight in osmosed water",pH 7.5
same,pH of the solution,"[1]; packaging PE + carbon black (according to the invention), storage 3 months, 40% by weight in osmosed water",pH 7.6
same,pH of the solution,"[1]; packaging PE + carbon black (according to the invention), storage 4 months, 40% by weight in osmosed water",pH 7.7
same,pH of the solution,"[1]; packaging Sachet 1 (comp.) branched/linear polyethylene 50%/50%, storage 0 day, 40% by weight in osmosed water",pH 7.6
same,pH of the solution,"[1]; packaging Sachet 1 (comp.) branched/linear polyethylene 50%/50%, storage 1 month, 40% by weight in osmosed water",pH 7.4
same,pH of the solution,"[1]; packaging Sachet 1 (comp.) branched/linear polyethylene 50%/50%, storage 1.5 month, 40% by weight in osmosed water",pH 7.4
same,pH of the solution,"[1]; packaging Sachet 1 (comp.) branched/linear polyethylene 50%/50%, storage 2 weeks, 40% by weight in osmosed water",pH 7.5
same,pH of the solution,"[1]; packaging Sachet 2 (comp.) branched/linear polyethylene 70%/30%, storage 0 day, 40% by weight in osmosed water",pH 7.6
same,pH of the solution,"[1]; packaging Sachet 2 (comp.) branched/linear polyethylene 70%/30%, storage 2 weeks, 40% by weight in osmosed water",pH 7.5
same,pH of the solution,"[1]; packaging Sachet 3 (comp.) 100% of branched polyethylene, storage 0 day, 40% by weight in osmosed water",pH 7.6
same,pH of the solution,"[1]; packaging Sachet 4 (comp.) 100% of linear polyethylene, storage 0 day, 40% by weight in osmosed water",pH 7.6
same,pH of the solution,"[1]; packaging Sachet 4 (comp.) 100% of linear polyethylene, storage 2 weeks, 40% by weight in osmosed water",pH 7.2
same,odor after storage,"[1]; samples not packaged in accordance with the invention, glass 4 months, sachet 1 2 months, sachets 2 and 4 1 month, sachet 3 2 weeks",characteristic odor of formic acid
same,"presence of peroxides (markers of oxidation phenomena, instability)",[2],did not show any presence of peroxides
